{
  "source": "paper PMC10184157",
  "about": "(ACS Medicinal Chemistry Letters, 2023)",
  "system": "athymic nude mice doubly xenografted with PC3 cells and 22Rv1 cells",
  "assay": "Quantitative PET imaging in doubly xenografted mice",
  "type": "in vivo",
  "conditions": "PET VOI analysis, 50-70 min p.i., retro-orbital injection",
  "data": [
    {"smiles": "O=C([O-])CN(CCN(CC(=O)[O-])Cc1cc(CCC(=O)NCCCCCC(=O)NCCCC[C@H](NC(=O)N[C@@H](CCC(=O)O)C(=O)O)C(=O)O)ccc1[O-])Cc1cc(CCC(=O)O)ccc1[O-].[68Ga+3].[OH3+]", "note": "[[^68Ga]Ga-PSMA11, HO-Glu-CO-Lys(HBED-CC-Ahx)-OH]", "values": [
      {"measurement": "uptake in 22Rv1 tumor", "result": 3.22, "unit": "% ID/g"}
    ]}
  ]
}
